Source: article PMC12523282, “New 5,6-diphenyl-1,2,4-triazine-hydrazineylidene-phenoxy-1,2,3-triazole-acetamide derivatives as potent synthetic α-glucosidase inhibitors” (RSC Advances, 2025)

Legend:
[1] = target: T1, α-glucosidase (Saccharomyces cerevisiae, UniProt P53341); assay: Anti-α-glucosidase assay (p-nitrophenyl-α-D-glucopyranoside substrate, absorbance 405 nm); assay type: biochemical; settings: for Inhibation: IC50 determination curve; for inhibition at 750 µM: read-out: In (%), inhibition percentage against α-glucosidase; for decrease of inhibitory activity relative to un-substituted derivative 13a: methyl group added to phenyl ring of 13a; for inhibitory activity, times more potent than acarbose: ratio of IC50 values vs acarbose
T1 construct: the yeast form of α-glucosidase, which was extracted from Saccharomyces cerevisiae; purchased Sigma-Aldrich; host or cells: Saccharomyces cerevisiae (extracted)
Protocol: After this time, the p-nitrophenyl-α-D-glucopyranoside (25 μL, 4 mM) was added to the latter plate and allowed to incubate at 37 °C for 20 min. […] The percentage of inhibition (% inhibition) for each sample was calculated using the formula “[(Abs control − Abs sample)/Abs control] × 100”, and IC50 values were obtained from non-linear regression curve using the Logit method.[24]

[2] = target: T1, α-glucosidase; assay: Kinetic study (Lineweaver–Burk method); assay type: biochemical; settings: Lineweaver–Burk plots
Protocol: Then, p-nitrophenyl-α-D-glucopyranoside at various concentrations (1–4 mM) was added to initiate the enzymatic reaction.
The type of inhibition mode was indicated by Lineweaver–Burk plots.

[3] = target: α-glucosidase; parameters: method as in PMID 31838286; settings: assay of template compounds B, Fig. 1 and Fig. 5; cited from earlier work
[4] = IC50 (from IC50 determination curves, supplement), logarithmic fit of inhibition vs Conc., unit inferred
[5] = IC50, yeast α-glucosidase, mean ± SD, at least three experiments

T1 sequence (P53341 whole entry): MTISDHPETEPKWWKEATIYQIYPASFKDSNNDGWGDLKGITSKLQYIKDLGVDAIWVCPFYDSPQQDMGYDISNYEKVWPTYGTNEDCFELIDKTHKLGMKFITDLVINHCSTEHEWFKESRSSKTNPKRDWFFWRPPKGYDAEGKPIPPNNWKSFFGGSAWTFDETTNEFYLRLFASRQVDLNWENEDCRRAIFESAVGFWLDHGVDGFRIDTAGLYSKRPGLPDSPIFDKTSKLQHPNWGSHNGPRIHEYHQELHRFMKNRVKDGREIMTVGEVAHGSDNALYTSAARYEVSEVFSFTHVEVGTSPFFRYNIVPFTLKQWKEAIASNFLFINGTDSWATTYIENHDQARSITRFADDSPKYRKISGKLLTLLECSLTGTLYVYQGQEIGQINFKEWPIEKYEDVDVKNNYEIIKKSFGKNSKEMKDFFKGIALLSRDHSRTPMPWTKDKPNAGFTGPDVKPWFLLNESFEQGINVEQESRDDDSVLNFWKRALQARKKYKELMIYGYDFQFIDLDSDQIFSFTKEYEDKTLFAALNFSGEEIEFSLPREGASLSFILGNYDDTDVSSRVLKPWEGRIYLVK

Structure (SMILES) | Inhibation ([1]; Conc. 15 (unit not given)) | Inhibation ([1]; Conc. 30 (unit not given)) | Inhibation ([1]; Conc. 60 (unit not given)) | Inhibation ([1]; Conc. 90 (unit not given)) | IC50 [1, 4] [µM] | IC50 [1, 5] [µM] | inhibition at 750 µM [1] [%] | effect of increasing inhibitor concentration on Vmax and Km [2] | type of inhibition mode [2] | IC50 [3] [µM] | potency relative to 4-methoxy derivative 13f ([1]; more potent than 13f) | Inhibation ([1]; Conc. 120 (unit not given)) | decrease of inhibitory activity relative to un-substituted derivative 13a [1] [fold] | inhibitory activity, times more potent than acarbose [1] [fold]
O=C(Cn1cc(COc2ccc(/C=N/Nc3nnc(-c4ccccc4)c(-c4ccccc4)n3)cc2)nn1)Nc1ccc(Cl)cc1 [Compound 13j, (E)-N-(4-Chlorophenyl)-2-(4-((4-((2-(5,6-diphenyl-1,2,4-triazin-3-yl)hydrazineylidene)methyl)phenoxy)methyl)-1H-1,2,3-triazol-1-yl)acetamide] | 73.02 | 75.43 | 79 | 81 | < 15 | 0.12 ± 0.02 | 83 | decrease in both Vmax and Km values | uncompetitive α-glucosidase inhibitor | – | – | – | – | –
O=C(Cn1cc(COc2ccc(-c3nc4ccccc4[nH]3)cc2)nn1)Nc1ccc(Br)cc1 [B (R = 4-Br, n = 0)] | – | – | – | – | – | – | – | – | – | 176 | – | – | – | –
CCc1ccc(NC(=O)Cn2cc(COc3ccc(/C=N/Nc4nnc(-c5ccccc5)c(-c5ccccc5)n4)cc3)nn2)cc1 [Compound 13e, (E)-2-(4-((4-((2-(5,6-Diphenyl-1,2,4-triazin-3-yl)hydrazineylidene)methyl)phenoxy)methyl)-1H-1,2,3-triazol-1-yl)-N-(4-ethylphenyl)acetamide] | 69.6 | 82.93 | 95 | – | < 15 | – | 100 | – | – | – | around 3 fold | – | – | –
O=C(Cn1cc(COc2ccc(/C=N/Nc3nnc(-c4ccccc4)c(-c4ccccc4)n3)cc2)nn1)Nc1ccc(Br)cc1 [Compound 13k, (E)-N-(4-Bromophenyl)-2-(4-((4-((2-(5,6-diphenyl-1,2,4-triazin-3-yl)hydrazineylidene)methyl)phenoxy)methyl)-1H-1,2,3-triazol-1-yl)acetamide] | 49.91 | 56.12 | 60 | 65 | 15.3 | 15.3 ± 0.29 | 69 | – | – | – | – | 67 | – | –
O=C(Cn1cc(COc2ccc(/C=N/Nc3nnc(-c4ccccc4)c(-c4ccccc4)n3)cc2)nn1)NCc1ccccc1 [Compound 13m, (E)-N-Benzyl-2-(4-((4-((2-(5,6-diphenyl-1,2,4-triazin-3-yl)hydrazineylidene)methyl)phenoxy)methyl)-1H-1,2,3-triazol-1-yl)acetamide] | 70 | 80 | 87 | 88.3 | – | – | 90 | – | – | – | – | 89 | – | –
Cc1ccccc1NC(=O)Cn1cc(COc2ccc(/C=N/Nc3nnc(-c4ccccc4)c(-c4ccccc4)n3)cc2)nn1 [Compound 13b, (E)-2-(4-((4-((2-(5,6-Diphenyl-1,2,4-triazin-3-yl)hydrazineylidene)methyl)phenoxy)methyl)-1H-1,2,3-triazol-1-yl)-N-(o-tolyl)acetamide] | 54.87 | 67 | 83 | 93 | 12.5 | 12.5 ± 0.21 | 98 | – | – | – | – | – | 15.6 | –
COc1ccc(NC(=O)Cn2cc(COc3ccc(-c4nc5ccccc5[nH]4)cc3)nn2)cc1 [B (R = 4-OMe, n = 0)] | – | – | – | – | – | – | – | – | – | 112 | – | – | – | –
O=C(Cn1cc(COc2ccc(-c3nc4ccccc4[nH]3)cc2)nn1)Nc1ccccc1[N+](=O)[O-] [B (R = 2-Nitro, n = 0)] | – | – | – | – | – | – | – | – | – | 35 | – | – | – | –
O=C(Cn1cc(COc2ccc(/C=N/Nc3nnc(-c4ccccc4)c(-c4ccccc4)n3)cc2)nn1)NCCc1ccccc1 [Compound 13n, (E)-2-(4-((4-((2-(5,6-Diphenyl-1,2,4-triazin-3-yl)hydrazineylidene)methyl)phenoxy)methyl)-1H-1,2,3-triazol-1-yl)-N-phenethylacetamide] | 79.27 | 84.67 | 90 | 93 | < 15 | – | 100 | – | – | – | – | 98 | – | –
O=C(Cn1cc(COc2ccc(-c3nc4ccccc4[nH]3)cc2)nn1)Nc1ccccc1Cl [B (R = 2-Cl, n = 0)] | – | – | – | – | – | – | – | – | – | 70.6 | – | – | – | –
Cc1cccc(NC(=O)Cn2cc(COc3ccc(/C=N/Nc4nnc(-c5ccccc5)c(-c5ccccc5)n4)cc3)nn2)c1 [Compound 13c, (E)-2-(4-((4-((2-(5,6-Diphenyl-1,2,4-triazin-3-yl)hydrazineylidene)methyl)phenoxy)methyl)-1H-1,2,3-triazol-1-yl)-N-(m-tolyl)acetamide] | 74.8 | 80.67 | 93 | 96 | < 15 | – | 100 | – | – | – | – | 97 | 2.25 | –
O=C(Cn1cc(COc2ccc(/C=N/Nc3nnc(-c4ccccc4)c(-c4ccccc4)n3)cc2)nn1)Nc1cccc(Cl)c1 [Compound 13i, (E)-N-(3-Chlorophenyl)-2-(4-((4-((2-(5,6-diphenyl-1,2,4-triazin-3-yl)hydrazineylidene)methyl)phenoxy)methyl)-1H-1,2,3-triazol-1-yl)acetamide] | 53.4 | 74.73 | 84 | 98 | 11.7 | 11.7 ± 0.18 | 100 | – | – | – | – | – | – | –
O=C(Cn1cc(COc2ccc(-c3nc4ccccc4[nH]3)cc2)nn1)NCc1ccccc1 [B (R = H, n = 1)] | – | – | – | – | – | – | – | – | – | 121 | – | – | – | –
O=C(Cn1cc(COc2ccc(-c3nc4ccccc4[nH]3)cc2)nn1)Nc1ccc(Cl)cc1 [B (R = 4-Cl, n = 0)] | – | – | – | – | – | – | – | – | – | 91.6 | – | – | – | –
COc1ccc(NC(=O)Cn2cc(COc3ccc(/C=N/Nc4nnc(-c5ccccc5)c(-c5ccccc5)n4)cc3)nn2)cc1 [Compound 13f, (E)-2-(4-((4-((2-(5,6-Diphenyl-1,2,4-triazin-3-yl)hydrazineylidene)methyl)phenoxy)methyl)-1H-1,2,3-triazol-1-yl)-N-(4-methoxyphenyl)acetamide] | 56 | 72.67 | 89 | 98 | 10.9 | 10.9 ± 0.24 | 100 | – | – | – | – | – | – | –
O=C(Cn1cc(COc2ccc(-c3nc4ccccc4[nH]3)cc2)nn1)Nc1ccccc1 [B (R = H, n = 0)] | – | – | – | – | – | – | – | – | – | 51.5 | – | – | – | –
Cc1ccc(NC(=O)Cn2cc(COc3ccc(/C=N/Nc4nnc(-c5ccccc5)c(-c5ccccc5)n4)cc3)nn2)c(C)c1 [Compound 13d, (E)-N-(2,4-Dimethylphenyl)-2-(4-((4-((2-(5,6-diphenyl-1,2,4-triazin-3-yl)hydrazineylidene)methyl)phenoxy)methyl)-1H-1,2,3-triazol-1-yl)acetamide] | 61.12 | 65.17 | 68 | 72 | < 15 | – | 75 | – | – | – | – | 74 | – | –
O=C(Cn1cc(COc2ccc(/C=N/Nc3nnc(-c4ccccc4)c(-c4ccccc4)n3)cc2)nn1)Nc1ccccc1F [Compound 13g, (E)-2-(4-((4-((2-(5,6-Diphenyl-1,2,4-triazin-3-yl)hydrazineylidene)methyl)phenoxy)methyl)-1H-1,2,3-triazol-1-yl)-N-(2-fluorophenyl)acetamide] | 69.05 | 72.24 | 76 | 78 | < 15 | – | 79 | – | – | – | – | – | – | –
O=C(Cn1cc(COc2ccc(/C=N/Nc3nnc(-c4ccccc4)c(-c4ccccc4)n3)cc2)nn1)Nc1ccccc1Cl [Compound 13h, (E)-N-(2-Chlorophenyl)-2-(4-((4-((2-(5,6-diphenyl-1,2,4-triazin-3-yl)hydrazineylidene)methyl)phenoxy)methyl)-1H-1,2,3-triazol-1-yl)acetamide] | 75.34 | 79.31 | 83 | 86 | < 15 | – | 87 | – | – | – | – | – | – | ~3947
O=C(Cn1cc(COc2ccc(/C=N/Nc3nnc(-c4ccccc4)c(-c4ccccc4)n3)cc2)nn1)Nc1ccccc1 [Compound 13a, (E)-2-(4-((4-((2-(5,6-Diphenyl-1,2,4-triazin-3-yl)hydrazineylidene)methyl)phenoxy)methyl)-1H-1,2,3-triazol-1-yl)-N-phenylacetamide] | 76.53 | 81.33 | 89 | 93 | < 15 | – | 95 | – | – | – | – | 94 | – | –
O=C(Cn1cc(COc2ccc(/C=N/Nc3nnc(-c4ccccc4)c(-c4ccccc4)n3)cc2)nn1)Nc1ccccc1[N+](=O)[O-] [Compound 13l, (E)-2-(4-((4-((2-(5,6-Diphenyl-1,2,4-triazin-3-yl)hydrazineylidene)methyl)phenoxy)methyl)-1H-1,2,3-triazol-1-yl)-N-(2-nitrophenyl)acetamide] | 37.76 | 48.45 | 59 | 65 | 34.2 | 34.2 ± 0.57 | 69 | – | – | – | – | 67 | – | 21.9
